How the values were obtained:
Trichogramma = assay: Chronic toxicity test on Trichogramma, egg card-dipping method; conditions: for NOEC (smallest NOEC among the endpoint effects): Trichogramma, overall over egg yield, emergence rate, adult survival time
Excerpt: Trichogramma is one of the natural enemies that are most widely used and have dominant influence. As an important means to control insect pests, chemical pesticides can also cause toxic and side effects to natural enemies of the insect pests that will be killed by the chemical pesticides. […] In the test, Trichogramma was adopted as a test organism, dimethoate and imidacloprid were adopted as test chemicals, and endpoint effects were egg yield, emergence rate and adult survival time. 6 treatment concentrations (including 1 blank control and 5 test chemical concentrations, see Table 1 for details) were set for each test chemical group.
The egg card-dipping method was adopted. A 1.0 cm×2.0 cm card of rice moth eggs (approximately 100 eggs) was placed in each finger tube, then about 20 Trichogramma adults at 4 h to 6 h after emergence were introduced, and the Trichogramma adults were removed after they had parasitized the rice moth eggs for 24 h. 144 h later, the egg cards were dipped in test solutions with different concentrations separately for 5 s, then taken out and air dried, and put into finger tubes. The tubes were sealed with a black cloth, and then put in an incubator until the emergence of Trichogramma adults was completed. A 0.1% Triton X-100 aqueous solution was adopted as a blank control. 9 replicates were set for each treatment, and divided into three groups for the observation of 3 endpoint effects respectively, namely, with 3 replicates for each endpoint effect. A first group was used to investigate the egg yield; a second group was used to investigate the number of emerged adults, and the emergence rate was calculated (emergence rate=the number of emerged adults/the number of […]×100%); and a third group was used to investigate the adult survival time. If the number of emerged adults is less than 30 or the emerged adults have a low vitality and thus cannot be transferred to a new finger tube autonomously, the parasitism rate and survival time will not be investigated.

quail = assay: Chronic toxicity (growth and reproduction) test for quails fed poisonous feedstuff; assay type: in vivo; conditions: for Egg production: average daily, day 40 to 48; for Stillbirth rate: eggs of day 45 to 50; for NOEC (smallest NOEC among the endpoint effects): quail, overall over body weight, egg production, stillbirth rate
Excerpt: In the test, the quail was adopted as a test organism, acetamiprid and MCPA were adopted as test chemicals, and the end effects were body weight, average daily egg production and stillbirth rate.
Healthy and lively quails, which were 30-day old and weighed 90 g to 110 g, were selected for the test. The male and female were raised separately, with 10 quails for each cage. The quails were fed with a poisonous feedstuff twice a day at the same feeding amount for a long time, with an average feeding amount of 20 g per day for each quail. Since the feeding started, the body weight was recorded for quails in each treatment; the number of eggs produced on day 40 to 48 was counted; the eggs produced on day 45 to 50 were collected and hatched in a poultry-specific hatcher separately for each treatment; and the stillbirth rate was calculated. In this example, the endpoint effect data were body weight, egg production and stillbirth rate.

[1] = mass concentration 0.5 mg/Lfeedstuff
[2] = mass concentration 2 mg/Lfeedstuff
[3] = mass concentration 7 mg/Lfeedstuff
[4] = mass concentration 30 mg/Lfeedstuff
[5] = mass concentration 130 mg/Lfeedstuff
[6] = mass concentration 1.25 mg/Lfeedstuff
[7] = mass concentration 6.25 mg/Lfeedstuff
[8] = mass concentration 25 mg/Lfeedstuff
[9] = mass concentration 125 mg/Lfeedstuff
[10] = mass concentration 500 mg/Lfeedstuff

O=[N+]([O-])NC1=NCCN1Cc1ccc(Cl)nc1 [Imidacloprid, imidacloprid]
Validation: emergence rate compared with blank control (Trichogramma; 35 mg/L): no significant difference
NOEC (smallest NOEC among the endpoint effects) (Trichogramma): 40 mg/L
NOEC for chronic toxicity in Trichogramma based on the adult survival time (Trichogramma): 160 mg/L
NOEC for chronic toxicity in Trichogramma based on the egg yield (Trichogramma): 80 mg/L
NOEC for chronic toxicity in Trichogramma based on the emergence rate (Trichogramma): 40 mg/L
Adult survival time (Trichogramma; mass concentration 10 mg/L): 3.60 a d
Egg yield (Trichogramma; mass concentration 10 mg/L): 37.0 a eggs
Emergence rate (Trichogramma; mass concentration 10 mg/L): 90.57 a %
Adult survival time (Trichogramma; mass concentration 20 mg/L): 3.23 a d
Egg yield (Trichogramma; mass concentration 20 mg/L): 37.3 a eggs
Emergence rate (Trichogramma; mass concentration 20 mg/L): 87.81 a %
Adult survival time (Trichogramma; mass concentration 40 mg/L): 3.50 a d
Egg yield (Trichogramma; mass concentration 40 mg/L): 36.0 a eggs
Emergence rate (Trichogramma; mass concentration 40 mg/L): 78.19 a %
Adult survival time (Trichogramma; mass concentration 80 mg/L): 3.21 a d
Egg yield (Trichogramma; mass concentration 80 mg/L): 34.2 a eggs
Emergence rate (Trichogramma; mass concentration 80 mg/L): 56.12 b %
Adult survival time (Trichogramma; mass concentration 160 mg/L): 3.12 a d
Egg yield (Trichogramma; mass concentration 160 mg/L): 28.5 b eggs
Emergence rate (Trichogramma; mass concentration 160 mg/L): 27.65 c %

C/C(=N\C#N)N(C)Cc1ccc(Cl)nc1 [Acetamiprid, acetamiprid]
Validation: body weight compared with blank control (quail; 125 mg/L): no significant difference
Validation: egg production compared with blank control (quail; 125 mg/L): no significant difference
Validation: stillbirth rate compared with blank control (quail; 125 mg/L): no significant difference
NOEC for chronic toxicity in quails based on the body weight (quail): 130 mg/kgfeedstuff
NOEC for chronic toxicity in quails based on the egg production (quail): 130 mg/kgfeedstuff
NOEC for chronic toxicity in quails based on the stillbirth rate (quail): 130 mg/kgfeedstuff
Body weight (quail; [1]): 150.9 a g
Egg production (quail; [1]): 0.87 a eggs
Stillbirth rate (quail; [1]): 23.4 a %
Body weight (quail; [2]): 156.7 a g
Egg production (quail; [2]): 0.86 a eggs
Stillbirth rate (quail; [2]): 16.7 a %
Body weight (quail; [3]): 153.6 a g
Egg production (quail; [3]): 0.87 a eggs
Stillbirth rate (quail; [3]): 25.7 a %
Body weight (quail; [4]): 151.9 a g
Egg production (quail; [4]): 0.89 a eggs
Stillbirth rate (quail; [4]): 26.4 a %
Body weight (quail; [5]): 145.4 a g
Egg production (quail; [5]): 0.86 a eggs
Stillbirth rate (quail; [5]): 21.9 a %
NOEC (smallest NOEC among the endpoint effects) (quail): 130 mg/kgfeedstuff

Cc1cc(Cl)ccc1OCC(=O)O [MCPA]
Validation: body weight compared with blank control (quail; 20 mg/L): no significant difference
NOEC for chronic toxicity in quails based on the body weight (quail): 25 mg/kgfeedstuff
NOEC for chronic toxicity in quails based on the egg production (quail): 500 mg/kgfeedstuff
NOEC for chronic toxicity in quails based on the stillbirth rate (quail): 25 mg/kgfeedstuff
Body weight (quail; [6]): 148.5 ab g
Egg production (quail; [6]): 0.97 a eggs
Stillbirth rate (quail; [6]): 22.4 a %
Body weight (quail; [7]): 155.3 ab g
Egg production (quail; [7]): 0.96 a eggs
Stillbirth rate (quail; [7]): 23.2 ab %
Body weight (quail; [8]): 150.7 ab g
Egg production (quail; [8]): 0.96 a eggs
Stillbirth rate (quail; [8]): 21.2 a %
Body weight (quail; [9]): 145.2 b g
Egg production (quail; [9]): 0.95 a eggs
Stillbirth rate (quail; [9]): 26.4 b %
Body weight (quail; [10]): 159.5 a g
Egg production (quail; [10]): 0.94 a eggs
Stillbirth rate (quail; [10]): 37.3 b %
NOEC (smallest NOEC among the endpoint effects) (quail): 25 mg/kgfeedstuff

CNC(=O)CSP(=S)(OC)OC [Dimethoate, dimethoate]
Validation: egg yield compared with blank control (Trichogramma; 90 mg/L): no significant difference
NOEC (smallest NOEC among the endpoint effects) (Trichogramma): 100 mg/L
NOEC for chronic toxicity in Trichogramma based on the adult survival time (Trichogramma): 400 mg/L
NOEC for chronic toxicity in Trichogramma based on the egg yield (Trichogramma): 100 mg/L
NOEC for chronic toxicity in Trichogramma based on the emergence rate (Trichogramma): 200 mg/L
Adult survival time (Trichogramma; mass concentration 25 mg/L): 3.15 a d
Egg yield (Trichogramma; mass concentration 25 mg/L): 36.1 a eggs
Adult survival time (Trichogramma; mass concentration 50 mg/L): 3.27 a d
Egg yield (Trichogramma; mass concentration 50 mg/L): 34.2 a eggs
Adult survival time (Trichogramma; mass concentration 100 mg/L): 3.30 a d
Egg yield (Trichogramma; mass concentration 100 mg/L): 31.6 a eggs
Adult survival time (Trichogramma; mass concentration 200 mg/L): 2.67 a d
Egg yield (Trichogramma; mass concentration 200 mg/L): 27.2 b eggs
Adult survival time (Trichogramma; mass concentration 400 mg/L): 2.32 a d
Egg yield (Trichogramma; mass concentration 400 mg/L): 20.7 b eggs
